DBAASP
Values after ≈ are worked out from the molar mass of the structure shown.

Legend:
Test in all cases: ≥ marks a high value that may be exact or a test limit, other limits are often not marked, values filed in µg/mL are converted to µM
[1] = tested on: Acinetobacter baumannii ATCC 17978D-5
[2] = tested on: Enterococcus faecium ATCC 700221
[3] = tested on: Klebsiella aerogenes ATCC 13048
[4] = tested on: Pseudomonas aeruginosa ATCC 19660
[5] = tested on: Pseudomonas aeruginosa ATCC 27853
[6] = tested on: Staphylococcus aureus ATCC 33591
[7] = tested on: Staphylococcus epidermidis ATCC 51625
[8] = tested on: Streptococcus pneumoniae ATCC 49619
[9] = tested on: Escherichia coli MG1655
[10] = tested on: Pseudomonas aeruginosa PA7
[11] = tested on: Pseudomonas aeruginosa PAO1
[12] = tested on: Staphylococcus aureus NCTC 8325
[13] = tested on: Alcaligenes faecalis ATCC 8750
[14] = tested on: Aspergillus niger
[15] = tested on: Bacillus megaterium ATCC 10778
[16] = tested on: Bacillus subtilis ATCC 6633
[17] = tested on: Beauveria bassiana
[18] = tested on: Candida albicans MDM8
[19] = tested on: Candida tropicalis IOC 4560
[20] = tested on: Enterobacter cloacae beta-12
[21] = tested on: Escherichia coli D31
[22] = tested on: Escherichia coli SBS 363
[23] = tested on: Micrococcus luteus A270
[24] = tested on: Microsporum canis MW768151
[25] = tested on: Microsporum canis
[26] = tested on: Proteus mirabilis
[27] = tested on: Saccharomyces cerevisiae PM340
[28] = tested on: Salmonella enterica subsp. arizonae ATCC 13314
[29] = tested on: Salmonella enterica subsp. enterica serovar Typhimurium ATCC 14028
[30] = tested on: Serratia marcescens ATCC 4112
[31] = tested on: Staphylococcus aureus ATCC 29213
[32] = tested on: Staphylococcus cohnii MW767053
[33] = tested on: Staphylococcus haemolyticus
[34] = tested on: Staphylococcus pseudintermedius MW767056
[35] = tested on: Staphylococcus pseudintermedius
[36] = tested on: Staphylococcus sciuri
[37] = tested on: Staphylococcus simulans
[38] = tested on: Trichophyton mentagrophytes
[39] = tested on: Escherichia coli ATCC 25922
[40] = tested on: Pseudomonas aeruginosa 21328
[41] = tested on: Pseudomonas aeruginosa 25349
[42] = tested on: Pseudomonas aeruginosa CICC 10419
[43] = tested on: Pseudomonas aeruginosa CICC 11411
[44] = tested on: Pseudomonas aeruginosa CICC 11421
[45] = tested on: Pseudomonas aeruginosa CICC 11431
[46] = tested on: Pseudomonas aeruginosa CICC 21625
[47] = tested on: Pseudomonas aeruginosa CICC 21630
[48] = tested on: Candida albicans ATCC 5314
[49] = tested on: Staphylococcus aureus ATCC 25923
[50] = tested on: Staphylococcus aureus MR

C[C@H](NC(=O)[C@H](Cc1ccccc1)NC(=O)[C@H](C)NC(=O)[C@@H](N)Cc1ccccc1)C(=O)N[C@@H](Cc1ccccc1)C(=O)N[C@@H](C)C(=O)N[C@@H](Cc1ccccc1)C(=O)N[C@@H](CCCCN)C(=O)N[C@@H](CCCCN)C(=O)N[C@@H](C)C(=O)N[C@@H](Cc1ccccc1)C(=O)N[C@@H](CCCCN)C(=O)N[C@@H](CCCCN)C(=O)N[C@@H](Cc1ccccc1)C(=O)N[C@@H](CCCCN)C(=O)N[C@@H](CCCCN)C(=O)N[C@@H](C)C(=O)N[C@@H](Cc1ccccc1)C(=O)N[C@@H](CCCCN)C(=O)N[C@@H](CCCCN)C(=O)N[C@@H](C)C(=O)N[C@@H](Cc1ccccc1)C(=O)O [FAFAFAFKKAFKKFKKAFKKAF]
MIC [1]: 0.755 µM (≈ 2 µg/mL)
MIC [2]: 3.02 µM (≈ 8 µg/mL)
MIC [3]: 24.2 µM (≈ 64 µg/mL)
MIC [4]: 24.2 µM (≈ 64 µg/mL)
MIC [5]: > 24.2 µM
MIC [6]: 6.04 µM (≈ 16 µg/mL)
MIC [7]: 1.51 µM (≈ 4 µg/mL)
MIC [8]: 24.2 µM (≈ 64 µg/mL)

CC[C@H](C)[C@H](N)C(=O)N[C@@H](CCCCN)C(=O)N[C@H](C(=O)N1CCC[C@H]1C(=O)N[C@@H](C)C(=O)N[C@H](C(=O)N[C@H](C(=O)N[C@@H](CCCCN)C(=O)N[C@@H](CC(=O)O)C(=O)N[C@H](C(=O)N[C@@H](CCC(N)=O)C(=O)N[C@@H](CCCCN)C(=O)N[C@@H](CCCCN)C(=O)N[C@H](C(=O)N[C@@H](C)C(=O)N[C@@H](CCCCN)C(=O)NCC(=O)N[C@H](C(=O)N[C@H](C(=O)N[C@@H](CO)C(=O)N[C@H](C(=O)N[C@H](C(=O)N[C@@H](C)C(=O)N[C@@H](CC(=O)O)C(=O)N[C@@H](C)C(=O)N[C@@H](CC(C)C)C(=O)N[C@@H](CO)C(=O)N[C@@H](CCCCN)C(=O)N[C@@H](CO)C(=O)O)C(C)C)[C@@H](C)O)[C@@H](C)CC)C(C)C)C(C)C)[C@@H](C)O)C(C)C)[C@@H](C)CC)C(C)C [IKVPAIVKDTQKKVAKGVISTVADALSKS]
MIC [9]: ≥ 512 µM
MIC [10]: ≥ 512 µM
MIC [11]: > 512 µM
MIC [12]: ≥ 512 µM

CC(C)[C@H](N)C(=O)N[C@@H](C)C(=O)N[C@@H](CCC(=O)O)C(=O)N[C@@H](C)C(=O)N[C@@H](CCCN=C(N)N)C(=O)N[C@@H](CCC(N)=O)C(=O)NCC(=O)N[C@@H](CO)C(=O)N[C@@H](Cc1ccccc1)C(=O)N[C@@H](CO)C(=O)N[C@@H](Cc1ccc(O)cc1)C(=O)O [VAEARQGSFSY]
MIC [13]: 12.5 µM (≈ 15.2 µg/mL)
MIC [14]: 25 µM (≈ 30.3 µg/mL)
MIC [15]: 12.5 µM (≈ 15.2 µg/mL)
MIC [16]: 25 µM (≈ 30.3 µg/mL)
MIC [17]: 25 µM (≈ 30.3 µg/mL)
MIC [18]: 25 µM (≈ 30.3 µg/mL)
MIC [19]: 25 µM (≈ 30.3 µg/mL)
MIC [20]: 25 µM (≈ 30.3 µg/mL)
MIC [21]: 12.5 µM (≈ 15.2 µg/mL)
MIC [22]: 25 µM (≈ 30.3 µg/mL)
MIC [23]: 6.24 µM (≈ 7.58 µg/mL)
MIC [24]: 0.412 µM (≈ 0.5 µg/mL)
MIC [25]: 0.824 µM (≈ 1 µg/mL)
MIC [26]: ≥ 211 µM
MIC [5]: 12.5 µM (≈ 15.2 µg/mL)
MIC [27]: 25 µM (≈ 30.3 µg/mL)
MIC [28]: 25 µM (≈ 30.3 µg/mL)
MIC [29]: 12.5 µM (≈ 15.2 µg/mL)
MIC [30]: 25 µM (≈ 30.3 µg/mL)
MIC [31]: 6.24 µM (≈ 7.58 µg/mL)
MIC [32]: ≥ 211 µM
MIC [33]: ≥ 211 µM
MIC [34]: ≥ 105 µM
MIC [35]: ≥ 105 µM
MIC [36]: ≥ 211 µM
MIC [37]: ≥ 105 µM
MIC [38]: 0.412 µM (≈ 0.5 µg/mL)

NC(=O)[C@H](Cc1c[nH]c2ccccc12)NC(=O)[C@H](CCCN=C(N)N)NC(=O)[C@H](CCCN=C(N)N)NC(=O)[C@H](Cc1c[nH]c2ccccc12)NC(=O)[C@H](CCCN=C(N)N)NC(=O)[C@H](CCCN=C(N)N)NC(=O)[C@H](CCCN=C(N)N)NC(=O)[C@H](Cc1c[nH]c2ccccc12)NC(=O)[C@H](CCCN=C(N)N)NC(=O)[C@H](CCCN=C(N)N)NC(=O)[C@H](CCCN=C(N)N)NC(=O)[C@H](Cc1c[nH]c2ccccc12)NC(=O)[C@H](CCCN=C(N)N)NC(=O)[C@H](CCCN=C(N)N)NC(=O)[C@@H](N)Cc1c[nH]c2ccccc12 [WRRWRRRWRRRWRRW]
MIC [39]: 12.7 µM (≈ 32 µg/mL)
MIC [40]: ≥ 102 µM
MIC [41]: 12.7 µM (≈ 32 µg/mL)
MIC [5]: 1.59 µM (≈ 4 µg/mL)
MIC [42]: ≥ 102 µM
MIC [43]: ≥ 102 µM
MIC [44]: ≥ 102 µM
MIC [45]: 3.19 µM (≈ 8 µg/mL)
MIC [46]: ≥ 102 µM
MIC [47]: 6.37 µM (≈ 16 µg/mL)
MIC [31]: 6.37 µM (≈ 16 µg/mL)

CC[C@H](C)[C@H](NC(=O)[C@@H](NC(=O)[C@H](CCCN=C(N)N)NC(=O)[C@H](Cc1ccccc1)NC(=O)[C@@H](N)Cc1ccc(O)cc1)[C@@H](C)O)C(=O)N[C@@H](CCCN=C(N)N)C(=O)N[C@@H](CCCN=C(N)N)C(=O)N[C@@H](Cc1ccccc1)C(=O)N[C@@H](Cc1ccccc1)C(=O)N[C@@H](CCCCN)C(=O)N[C@@H](CCCCN)C(=O)N[C@@H](CC(C)C)C(=O)N[C@@H](Cc1ccccc1)C(=O)N[C@@H](CCCCN)C(=O)N[C@H](C(=O)N[C@@H](CC(C)C)C(=O)N[C@@H](CCCCN)C(=O)N[C@@H](CCCCN)C(N)=O)[C@@H](C)O [YFRTIRRFFKKLFKTLKK]
MIC [48]: 26.4 µM (≈ 64 µg/mL)
MIC [49]: 26.4 µM (≈ 64 µg/mL)
MIC [50]: 26.4 µM (≈ 64 µg/mL)
